# Reference: BindingDB's records for doi:10.1016/s0960-894x(99)00595-8 (Banyu Tsukuba Research Institute In Collaboration With …, 2000)
# Target: DNA topoisomerase 2-alpha (Homo sapiens) (UniProt P11388)
# Experiment: In vitro inhibition of Topoisomerase II-mediated DNA cleavage using supercoiled pBR322 plasmid DNA.
# DNA topoisomerase 2-alpha (Homo sapiens), sequence (P11388 whole entry, looked up): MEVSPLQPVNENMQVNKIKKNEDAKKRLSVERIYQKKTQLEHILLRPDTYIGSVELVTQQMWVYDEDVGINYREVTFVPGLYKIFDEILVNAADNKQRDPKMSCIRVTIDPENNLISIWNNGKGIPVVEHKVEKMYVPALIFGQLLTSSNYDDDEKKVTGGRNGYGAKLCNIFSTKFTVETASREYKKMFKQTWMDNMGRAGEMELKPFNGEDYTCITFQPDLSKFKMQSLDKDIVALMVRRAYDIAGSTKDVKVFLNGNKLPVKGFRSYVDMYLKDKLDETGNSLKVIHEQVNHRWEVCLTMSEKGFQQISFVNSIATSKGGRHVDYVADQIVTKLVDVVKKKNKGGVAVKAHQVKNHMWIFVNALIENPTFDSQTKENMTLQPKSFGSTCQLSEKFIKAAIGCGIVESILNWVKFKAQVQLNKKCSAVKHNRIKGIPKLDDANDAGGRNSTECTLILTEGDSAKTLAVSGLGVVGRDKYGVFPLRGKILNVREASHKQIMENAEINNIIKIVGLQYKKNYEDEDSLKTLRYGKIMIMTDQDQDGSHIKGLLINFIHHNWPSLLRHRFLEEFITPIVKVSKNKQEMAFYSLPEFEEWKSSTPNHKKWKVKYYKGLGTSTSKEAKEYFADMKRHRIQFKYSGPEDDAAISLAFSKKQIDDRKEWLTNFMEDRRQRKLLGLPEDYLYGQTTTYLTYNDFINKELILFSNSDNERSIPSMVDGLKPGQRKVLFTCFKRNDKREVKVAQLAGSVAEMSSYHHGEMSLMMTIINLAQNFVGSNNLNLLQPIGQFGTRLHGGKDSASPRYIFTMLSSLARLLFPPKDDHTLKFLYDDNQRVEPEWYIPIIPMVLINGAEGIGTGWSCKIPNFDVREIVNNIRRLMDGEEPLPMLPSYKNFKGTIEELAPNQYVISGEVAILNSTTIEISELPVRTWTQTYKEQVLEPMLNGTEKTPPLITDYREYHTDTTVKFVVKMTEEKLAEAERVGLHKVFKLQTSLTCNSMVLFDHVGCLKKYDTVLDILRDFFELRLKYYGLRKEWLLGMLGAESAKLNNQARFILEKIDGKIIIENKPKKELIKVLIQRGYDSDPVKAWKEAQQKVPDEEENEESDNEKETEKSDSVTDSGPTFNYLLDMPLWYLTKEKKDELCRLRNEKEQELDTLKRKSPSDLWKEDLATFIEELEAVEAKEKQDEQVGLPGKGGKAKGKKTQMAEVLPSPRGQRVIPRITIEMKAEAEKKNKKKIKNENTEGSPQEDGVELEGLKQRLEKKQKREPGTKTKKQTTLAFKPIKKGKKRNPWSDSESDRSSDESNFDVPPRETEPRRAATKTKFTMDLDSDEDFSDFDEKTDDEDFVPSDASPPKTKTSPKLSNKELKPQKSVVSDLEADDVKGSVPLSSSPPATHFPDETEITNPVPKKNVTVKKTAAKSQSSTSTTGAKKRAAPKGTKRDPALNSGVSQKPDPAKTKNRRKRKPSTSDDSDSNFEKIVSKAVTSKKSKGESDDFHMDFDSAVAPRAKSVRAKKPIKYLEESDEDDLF
row,SMILES,EC50 [µM]
1,"O=C1c2c(c3c4cc(O)cc(O)c4n(C4OC(CO)C(O)C(O)C4O)c3c3[nH]c4c(O)cc(O)cc4c23)C(=O)N1NC(CO)CO (stereo not drawn) [1,3,9,11-tetrahydroxy-6-(2-hydroxy-1-hydroxymethylethylamino)-12-(3,4,5-trihydroxy-6-hydroxymethyltetrahydro-2H-2-pyranyl)-6,7,12,13-tetrahydro-5H-indolo[2,3-a]pyrrolo[3,4-c]carbazole-5,7-dione]",> 50
2,"O=C1c2c(c3c4ccc(O)cc4n(C4OC(CO)C(O)C(O)C4O)c3c3[nH]c4c(O)cc(O)cc4c23)C(=O)N1NC(CO)CO (stereo not drawn) [1,3,10-trihydroxy-6-(2-hydroxy-1-hydroxymethylethylamino)-12-(3,4,5-trihydroxy-6-hydroxymethyltetrahydro-2H-2-pyranyl)-6,7,12,13-tetrahydro-5H-indolo[2,3-a]pyrrolo[3,4-c]carbazole-5,7-dione]",> 50
3,"O=C1c2c(c3c4cc(O)ccc4n(C4OC(CO)C(O)C(O)C4O)c3c3[nH]c4c(O)cccc4c23)C(=O)N1NC(CO)CO (stereo not drawn) [1,9-dihydroxy-6-(2-hydroxy-1-hydroxymethylethylamino)-12-(3,4,5-trihydroxy-6-hydroxymethyltetrahydro-2H-2-pyranyl)-6,7,12,13-tetrahydro-5H-indolo[2,3-a]pyrrolo[3,4-c]carbazole-5,7-dione]",> 50
4,"O=C1c2c(c3c4cccc(O)c4n(C4OC(CO)C(O)C(O)C4O)c3c3[nH]c4ccc(O)cc4c23)C(=O)N1NC(CO)CO (stereo not drawn) [1,9-dihydroxy-6-(2-hydroxy-1-hydroxymethylethylamino)-13-(3,4,5-trihydroxy-6-hydroxymethyltetrahydro-2H-2-pyranyl)-6,7,12,13-tetrahydro-5H-indolo[2,3-a]pyrrolo[3,4-c]carbazole-5,7-dione]",> 50
5,"O=C1c2c(c3c4ccc(O)cc4n(C4OC(CO)C(O)C(O)C4O)c3c3[nH]c4c(O)cccc4c23)C(=O)N1NC(CO)CO (stereo not drawn) [1,10-dihydroxy-6-(2-hydroxy-1-hydroxymethylethylamino)-12-(3,4,5-trihydroxy-6-hydroxymethyltetrahydro-2H-2-pyranyl)-6,7,12,13-tetrahydro-5H-indolo[2,3-a]pyrrolo[3,4-c]carbazole-5,7-dione]",> 50
6,"O=C1c2c(c3c4cccc(O)c4n(C4OC(CO)C(O)C(O)C4O)c3c3[nH]c4cc(O)ccc4c23)C(=O)N1NC(CO)CO (stereo not drawn) [1,10-dihydroxy-6-(2-hydroxy-1-hydroxymethylethylamino)-13-(3,4,5-trihydroxy-6-hydroxymethyltetrahydro-2H-2-pyranyl)-6,7,12,13-tetrahydro-5H-indolo[2,3-a]pyrrolo[3,4-c]carbazole-5,7-dione]",> 50
7,"O=C1c2c(c3c4cccc(O)c4n(C4OC(CO)C(O)C(O)C4O)c3c3[nH]c4c(O)cccc4c23)C(=O)N1NC(CO)CO (stereo not drawn) [1,11-dihydroxy-6-(2-hydroxy-1-hydroxymethylethylamino)-12-(3,4,5-trihydroxy-6-hydroxymethyltetrahydro-2H-2-pyranyl)-6,7,12,13-tetrahydro-5H-indolo[2,3-a]pyrrolo[3,4-c]carbazole-5,7-dione]",> 50
8,"O=C1c2c(c3c4ccccc4n(C4OC(CO)C(O)C(O)C4O)c3c3[nH]c4c(O)cccc4c23)C(=O)N1NC(CO)CO (stereo not drawn) [1-hydroxy-6-(2-hydroxy-1-hydroxymethylethylamino)-12-(3,4,5-trihydroxy-6-hydroxymethyltetrahydro-2H-2-pyranyl)-6,7,12,13-tetrahydro-5H-indolo[2,3-a]pyrrolo[3,4-c]carbazole-5,7-dione]",> 50
9,"O=C1c2c(c3c4cccc(O)c4n(C4OC(CO)C(O)C(O)C4O)c3c3[nH]c4ccccc4c23)C(=O)N1NC(CO)CO (stereo not drawn) [1-hydroxy-6-(2-hydroxy-1-hydroxymethylethylamino)-13-(3,4,5-trihydroxy-6-hydroxymethyltetrahydro-2H-2-pyranyl)-6,7,12,13-tetrahydro-5H-indolo[2,3-a]pyrrolo[3,4-c]carbazole-5,7-dione]",> 50
10,"O=C1c2c(c3c4cc(O)ccc4n(C4OC(CO)C(O)C(O)C4O)c3c3[nH]c4cc(O)ccc4c23)C(=O)N1NC(CO)CO (stereo not drawn) [2,9-dihydroxy-6-(2-hydroxy-1-hydroxymethylethylamino)-12-(3,4,5-trihydroxy-6-hydroxymethyltetrahydro-2H-2-pyranyl)-6,7,12,13-tetrahydro-5H-indolo[2,3-a]pyrrolo[3,4-c]carbazole-5,7-dione]",> 50
11,"O=C1c2c(c3c4ccc(O)cc4n(C4OC(CO)C(O)C(O)C4O)c3c3[nH]c4ccc(O)cc4c23)C(=O)N1NC(CO)CO (stereo not drawn) [2,9-dihydroxy-6-(2-hydroxy-1-hydroxymethylethylamino)-13-(3,4,5-trihydroxy-6-hydroxymethyltetrahydro-2H-2-pyranyl)-6,7,12,13-tetrahydro-5H-indolo[2,3-a]pyrrolo[3,4-c]carbazole-5,7-dione]",> 50
12,"O=C1c2c(c3c4ccc(O)cc4n(C4OC(CO)C(O)C(O)C4O)c3c3[nH]c4cc(O)ccc4c23)C(=O)N1NC(CO)CO (stereo not drawn) [2,10-dihydroxy-6-(2-hydroxy-1-hydroxymethylethylamino)-12-(3,4,5-trihydroxy-6-hydroxymethyltetrahydro-2H-2-pyranyl)-6,7,12,13-tetrahydro-5H-indolo[2,3-a]pyrrolo[3,4-c]carbazole-5,7-dione]",> 50
13,"O=C1c2c(c3c4ccccc4n(C4OC(CO)C(O)C(O)C4O)c3c3[nH]c4cc(O)ccc4c23)C(=O)N1NC(CO)CO (stereo not drawn) [2-hydroxy-6-(2-hydroxy-1-hydroxymethylethylamino)-12-(3,4,5-trihydroxy-6-hydroxymethyltetrahydro-2H-2-pyranyl)-6,7,12,13-tetrahydro-5H-indolo[2,3-a]pyrrolo[3,4-c]carbazole-5,7-dione]",> 50
14,"O=C1c2c(c3c4ccc(O)cc4n(C4OC(CO)C(O)C(O)C4O)c3c3[nH]c4ccccc4c23)C(=O)N1NC(CO)CO (stereo not drawn) [2-hydroxy-6-(2-hydroxy-1-hydroxymethylethylamino)-13-(3,4,5-trihydroxy-6-hydroxymethyltetrahydro-2H-2-pyranyl)-6,7,12,13-tetrahydro-5H-indolo[2,3-a]pyrrolo[3,4-c]carbazole-5,7-dione]",> 50
15,"O=C1c2c(c3c4cc(O)ccc4n(C4OC(CO)C(O)C(O)C4O)c3c3[nH]c4ccc(O)cc4c23)C(=O)N1NC(CO)CO (stereo not drawn) [3,9-dihydroxy-6-(2-hydroxy-1-hydroxymethylethylamino)-12-(3,4,5-trihydroxy-6-hydroxymethyltetrahydro-2H-2-pyranyl)-6,7,12,13-tetrahydro-5H-indolo[2,3-a]pyrrolo[3,4-c]carbazole-5,7-dione]",> 50
16,"O=C1c2c(c3c4ccccc4n(C4OC(CO)C(O)C(O)C4O)c3c3[nH]c4ccc(O)cc4c23)C(=O)N1NC(CO)CO (stereo not drawn) [3-hydroxy-6-(2-hydroxy-1-hydroxymethylethylamino)-12-(3,4,5-trihydroxy-6-hydroxymethyltetrahydro-2H-2-pyranyl)-6,7,12,13-tetrahydro-5H-indolo[2,3-a]pyrrolo[3,4-c]carbazole-5,7-dione]",> 50
17,"O=C1c2c(c3c4cc(O)ccc4n(C4OC(CO)C(O)C(O)C4O)c3c3[nH]c4ccccc4c23)C(=O)N1NC(CO)CO (stereo not drawn) [3-hydroxy-6-(2-hydroxy-1-hydroxymethylethylamino)-13-(3,4,5-trihydroxy-6-hydroxymethyltetrahydro-2H-2-pyranyl)-6,7,12,13-tetrahydro-5H-indolo[2,3-a]pyrrolo[3,4-c]carbazole-5,7-dione]",> 50
18,"O=C1c2c(c3c4ccccc4n(C4OC(CO)C(O)C(O)C4O)c3c3[nH]c4cccc(O)c4c23)C(=O)N1NC(CO)CO (stereo not drawn) [4-hydroxy-6-(2-hydroxy-1-hydroxymethylethylamino)-12-(3,4,5-trihydroxy-6-hydroxymethyltetrahydro-2H-2-pyranyl)-6,7,12,13-tetrahydro-5H-indolo[2,3-a]pyrrolo[3,4-c]carbazole-5,7-dione]",> 50
